Experimental data taken from patent US20230117777A1, “METHYLATION OF MCL-1 COMPOUNDS” (Amgen Inc., priority 2020, published 2023).

Assay: Moisture sorption profile (DVS)
Format: physicochemical
Conditions: by 95% RH; FIG. 6
Description: Moisture Sorption: Moisture sorption data was collected using a Surface Measurement Systems DVSAdvantage instrument. Equilibrium criteria were set at ±0.001% weight change in 10 minutes with a maximum equilibrium time of 360 minutes.

weight gain (moisture sorption profile): 3.3%
Structure (SMILES): CO[C@]1(CN2CCN3CCCC[C@@H]3C2)/C=C/C[C@H](C)[C@@H](C)S(=O)(=O)NC(=O)c2ccc3c(c2)N(C[C@@H]2CC[C@H]21)C[C@@]1(CCCc2cc(Cl)ccc21)CO3 [crystalline hydrate form of compound A]
